The text below walks through data of US20230087118A1, “IMIDAZO[1,2-a][sequence] DERIVATIVES AND THEIR USE IN THE TREATMENT OF DISEASE” (priority 2019, published 2023).

Counter-ions that a name gives are not always drawn.

By IC50 is commonly meant the concentration that inhibits the measured activity by half. Low readings indicate inhibition by little substance, high ones a need for much substance.

The first test addresses T1, IRAK4 (Homo sapiens, UniProt Q9NWZ3).
T1 sequence (Q9NWZ3 1-460): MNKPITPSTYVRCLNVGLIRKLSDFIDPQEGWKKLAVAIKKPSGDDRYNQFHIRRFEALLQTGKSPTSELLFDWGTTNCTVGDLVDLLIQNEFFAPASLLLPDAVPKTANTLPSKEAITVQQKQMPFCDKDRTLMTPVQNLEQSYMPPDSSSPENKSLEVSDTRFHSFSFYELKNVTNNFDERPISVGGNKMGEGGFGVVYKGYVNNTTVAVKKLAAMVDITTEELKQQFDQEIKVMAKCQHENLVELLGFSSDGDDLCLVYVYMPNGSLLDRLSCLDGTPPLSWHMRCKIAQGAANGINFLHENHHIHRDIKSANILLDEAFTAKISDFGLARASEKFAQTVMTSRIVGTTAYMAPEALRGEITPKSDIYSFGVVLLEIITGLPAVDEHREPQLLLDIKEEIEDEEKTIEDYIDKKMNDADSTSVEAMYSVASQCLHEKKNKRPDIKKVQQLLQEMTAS
The experiment in a line: biochemical.
Conditions: not given
For `CCOc1cc2nc([C@H]3C[C@H]3F)cn2cc1C(=O)Nc1cccc(OC)n1` [Example 79], the IC50 turned out to be 0.0126 µM.
Take `CCOc1cc2nc([C@@H]3C[C@@H]3F)cn2cc1C(=O)Nc1cccc(OC)n1` [Example 80]: the IC50 is 0.029 µM.
Still for that read-out and setting: then `COc1cccc(NC(=O)c2cn3cc(C4CCOCC4)nc3cn2)n1` [Example 81], with 0.232 µM; and `O=C(Nc1cccc(C(F)(F)F)n1)c1cn2cc(C3CCOCC3)nc2cn1` [Example 82], with 0.119 µM; and `O=C(Nc1cccc(C(F)F)n1)c1cn2cc(C3CCOCC3)nc2cn1` [Example 83], with 0.264 µM.
For `COCCn1ccc(NC(=O)c2cn3cc(C4C5COCC54)nc3cn2)n1` (centres unmarked) [Example 84], the IC50 came out at 7.51 µM.
Still for that read-out and setting: the same measure for `CCc1cccc(NC(=O)c2cn3cc(C4CCOCC4)nc3c(OC)n2)n1` [Example 86]: 0.034 µM; for `COc1nc(C(=O)Nc2ccn(C(F)F)n2)cn2cc(C3CCOCC3)nc12` [Example 87]: 0.0329 µM.
Same read-out and setting: then `COc1nc(C(=O)Nc2ccn(C)n2)cn2cc(C3CCOCC3)nc12` [Example 88], with 0.0509 µM.
Still for that read-out and setting: the same measure for `COc1nc(C(=O)Nc2ccnn2C)cn2cc(C3CCOCC3)nc12` [Example 89]: 5.69 µM.
As for `COc1cccc(NC(=O)c2cn3cc(C4CCOCC4)nc3cc2OC(C)C)n1` [Example 93, 7-isopropoxy-N-(6-methoxypyridin-2-yl)-2-(tetrahydro-2H-pyran-4-yl)imidazo[1,2-a]pyridine-6-carboxamide], the IC50 is 0.0002 µM.
With `COc1cccc(NC(=O)c2cn3cc(C4CC5CCC(C4)O5)nc3cc2OC(C)C)n1` (centres unmarked) [Example 94, 2-(8-oxabicyclo[3.2.1]octan-3-yl)-7-isopropoxy-N-(6-methoxypyridin-2-yl)imidazo[1,2-a]pyridine-6-carboxamide], half-maximal inhibition (IC50) required 0.0178 µM.
On the same count and under the same terms, the same measure for `CCOc1cc2nc(C(F)F)cn2cc1C(=O)Nc1cccc(C(F)F)n1` [Example 95, 2-(Difluoromethyl)-N-(6-(difluoromethyl)pyridin-2-yl)-7-ethoxyimidazo[1,2-a]pyridine-6-carboxamide]: 0.0005 µM.
Take `CC(C)Oc1cc2nc(C(F)F)cn2cc1C(=O)Nc1cccc(C(F)F)n1` [Example 99]: the IC50 is 0.0073 µM.
`COc1cccc(NC(=O)c2cn3cc(C(F)F)nc3cc2OC(C)C)n1` [Example 100] returned an IC50 of 0.0178 µM.
The same measure, in the same setting: the same measure for `COc1cccc(NC(=O)c2cn3cc(C(C)(F)F)nc3cc2OC(C)C)n1` [Example 101]: 0.0175 µM.
The same measure, in the same setting: the same measure for `COCCCc1cn2cc(C(=O)Nc3cccc(C(F)F)n3)c(OC(C)C)cc2n1` [Example 102, N-(6-(difluoromethyl)pyridin-2-yl)-7-isopropoxy-2-(3-methoxypropyl)imidazo[1,2-a]pyridine-6-carboxamide]: 0.0004 µM.
The compound `COCCCc1cn2cc(C(=O)Nc3cccc(OC)n3)c(OC(C)C)cc2n1` [Example 103, 7-Isopropoxy-2-(3-methoxypropyl)-N-(6-methoxypyridin-2-yl)imidazo[1,2-a]pyridine-6-carboxamide] had a 50% inhibitory concentration (IC50) of 0.0032 µM.
The same measure, in the same setting: then `CCc1ncsc1NC(=O)c1cn2cc(C3CCOCC3)nc2cc1OC` [Example 104], with 0.0476 µM; and `COc1cc2nc(C3CCOCC3)cn2cc1C(=O)Nc1csnc1C` [Example 108], with 0.0669 µM; and `COc1cc2nc(C3CCOCC3)cn2cc1C(=O)Nc1ccc(F)cc1OC(C)C` [Example 109], with 0.114 µM.
On the same count and under the same terms, then `COc1cc2nc(C3CCOCC3)cn2cc1C(=O)Nc1cccc(C)c1F` [Example 110], with 0.0082 µM; and `COc1cc2nc(C3CCOCC3)cn2cc1C(=O)Nc1cscc1Cl` [Example 111], with 0.0198 µM; and `COc1ccc(Cl)cc1NC(=O)c1cn2cc(C3CCOCC3)nc2cc1OC` [Example 112], with 0.514 µM.
In the case of `COc1cc2nc(C3CCOCC3)cn2cc1C(=O)Nc1cccc(F)c1F` [Example 113], the half-inhibitory concentration (IC50) is 0.0357 µM.
On the same count and under the same terms, then `COc1cc2nc(C3CCOCC3)cn2cc1C(=O)Nc1cccc(Cl)c1F` [Example 114], with 0.0153 µM; and `COc1cc2nc(C3CCOCC3)cn2cc1C(=O)Nc1cccc(C)c1Cl` [Example 115], with 0.0061 µM.
`COc1cc2nc(C3CCOCC3)cn2cc1C(=O)Nc1cccc(C)n1` [Example 116] yielded an IC50 of 0.0106 µM.
On the same count and under the same terms, then `COc1cc2nc(C3CCOCC3)cn2cc1C(=O)Nc1ccc(C)n(C)c1=O` [Example 182], with 0.559 µM.
Compound `COc1cc2nc(C3CCOCC3)cn2cc1C(=O)Nc1cccn(C)c1=O` [Example 183] yielded an IC50 of 0.0069 µM.
Still for that read-out and setting: the same measure for `COc1cc2nc(C3CCOCC3)cn2cc1C(=O)Nc1ccn(CC2CC2)n1` [Example 184]: 0.208 µM.
Same read-out and setting: then `CCn1cccc(NC(=O)c2cn3cc(C4CCOCC4)nc3cc2OC)c1=O` [Example 185], with 0.0434 µM.
`COc1cc2nc(C3CCOCC3)cn2cc1C(=O)Nc1cnn(C)c1C1CC1` [Example 186] had an IC50 of 0.312 µM.
Still for that read-out and setting: then `COc1cc2nc(C3CCOCC3)cn2cc1C(=O)Nc1cccnc1C(C)C` [Example 187], with 0.148 µM; and `COc1cc2nc(C3CCOCC3)cn2cc1C(=O)Nc1ccc(O)nc1OC` [Example 188], with 0.326 µM; and `COc1cc2nc(C3CCOCC3)cn2cc1C(=O)Nc1cccnc1O` [Example 189], with 0.0165 µM.
Regarding `COc1cc2nc(C3CCOCC3)cn2cc1C(=O)Nc1ccn(CCF)n1` [Example 190], the IC50 worked out at 0.111 µM.
Still for that read-out and setting: the same measure for `COc1cc2nc(C3CCOCC3)cn2cc1C(=O)Nc1ccn(C2CCCC2)n1` [Example 191]: 0.27 µM.
Same read-out and setting: the same measure for `COc1cc2nc(C3CCOCC3)cn2cc1C(=O)Nc1cccn(C(C)C)c1=O` [Example 192]: 0.0429 µM.
Take `COc1cc2nc(C3CCOCC3)cn2cc1C(=O)Nc1cccnc1OC` [Example 193]: the IC50 was found to be 0.0027 µM.
In the case of `COc1cc2nc(C3CCOCC3)cn2cc1C(=O)Nc1cnn(C)c1C` [Example 194], half-maximal inhibition (IC50) was put at 0.624 µM.
The compound `COc1cnccc1NC(=O)c1cn2cc(C3CCOCC3)nc2cc1OC` [Example 195] came in with an IC50 of 0.123 µM.
With `COc1cc2nc(C3CCOCC3)cn2cc1C(=O)Nc1cccnc1OCC(F)F` [Example 196], the IC50 was 0.0091 µM.
Same read-out and setting: the same measure for `COc1cc2nc(C3CCOCC3)cn2cc1C(=O)Nc1ccn(C2CC2(F)F)n1` (centres unmarked) [Example 197]: 0.166 µM; for `COc1cc2nc(C3CCOCC3)cn2cc1C(=O)Nc1cccn(CC(F)(F)F)c1=O` [Example 198]: 0.0759 µM.
In turn, `CCc1c(NC(=O)c2cn3cc(C4CCOCC4)nc3cc2OC)cnn1C` [Example 199] gave an IC50 of 0.181 µM.
The same measure, in the same setting: then `COc1cc2nc(C3CCOCC3)cn2cc1C(=O)Nc1cccnc1OC(C)C` [Example 200], with 0.0115 µM; and `COc1cc2nc(C3CCOCC3)cn2cc1C(=O)Nc1ccnc(C)c1OC` [Example 201], with 0.378 µM; and `COc1cc2nc(C3CCOCC3)cn2cc1C(=O)Nc1cccc(CO)n1` [Example 202], with 0.0137 µM.
`COc1cc2nc(C3CCOCC3)cn2cc1C(=O)Nc1ncnc2cccnc12` [Example 204, 7-Methoxy-N-(pyrido[3,2-d]pyrimidin-4-yl)-2-(tetrahydro-2H-pyran-4-yl)imidazo[1,2-a]pyridine-6-carboxamide] yielded an IC50 of 0.429 µM.

The test is the same for the next values; noted with them: IRAK4 Biochemical Assay (1 mM ATP, 2 h) IC50 (μM), 1 mM ATP, 2 h, 100 pM IRAK4.
Turning to `O=C(Nc1cccc(C(F)F)n1)c1cc(OC(F)F)c2nc(C3CCOCC3)cn2c1` [Example 63, 8-(Difluoromethoxy)-N-(6-(difluoromethyl)pyridin-2-yl)-2-(tetrahydro-2H-pyran-4-yl)imidazo[1,2-a]pyridine-6-carboxamide trifluoroacetate], the IC50 was 0.0078 µM.
On the same count and under the same terms, the same measure for `COc1nc(C(=O)Nc2cccc(C(F)(F)F)n2)cn2cc(C3CCOCC3)nc12` [Example 76]: 0.0095 µM; for `COc1cccc(NC(=O)c2cn3cc(C4CCOCC4)nc3c(OC)n2)n1` [Example 77]: 0.074 µM.
Consider `COc1nc(C(=O)Nc2ccccn2)cn2cc(C3CCOCC3)nc12` [Example 78], for which the IC50 came to 0.0475 µM.
Regarding `CCOc1cc2nc(C3CN(CC(F)F)C3)cn2cc1C(=O)Nc1cccc(C(F)F)n1` [Example 90], it took 0.0015 µM to reach half-maximal inhibition (IC50).
On the same count and under the same terms, then `CC(C)Oc1cc2nc(C3CCOCC3)cn2cc1C(=O)Nc1cccc(C(F)F)n1` [Example 92, N-(6-(difluoromethyl)pyridin-2-yl)-7-isopropoxy-2-(tetrahydro-2H-pyran-4-yl)imidazo[1,2-a]pyridine-6-carboxamide], with 0.0003 µM; and `CC(C)Oc1cc2nc(C34COC(C)(C3)C4)cn2cc1C(=O)Nc1cccc(C(F)F)n1` [Example 96, N-(6-(difluoromethyl)pyridin-2-yl)-7-isopropoxy-2-(1-methyl-2-oxabicyclo[2.1.1]hexan-4-yl)imidazo[1,2-a]pyridine-6-carboxamide], with 0.0002 µM.
With `COc1cccc(NC(=O)c2cn3cc(C45COC(C)(C4)C5)nc3cc2OC(C)C)n1` [Example 97, 7-Isopropoxy-N-(6-methoxypyridin-2-yl)-2-(1-methyl-2-oxabicyclo[2.1.1]hexan-4-yl)imidazo[1,2-a]pyridine-6-carboxamide], the IC50 stood at 0.0003 µM.
On the same count and under the same terms, then `CC(C)Oc1cc2nc(C(C)(F)F)cn2cc1C(=O)Nc1cccc(C(F)F)n1` [Example 98, 2-(1,1-Difluoroethyl)-N-(6-(difluoromethyl)pyridin-2-yl)-7-isopropoxyimidazo[1,2-a]pyridine-6-carboxamide], with 0.0038 µM.
